# Source: patent publication US8440675B2, “Potentiator of radiation therapy” (Taiho Pharmaceutical Co., Ltd., priority 2006, dated 2013)
# Where “and” joins values, the source holds several entries; their conditions need not be identical. Equal entries are not always repeated.
# Key:
# Assay type in all cases: in vivo
# [1] = tested on: human lung cancer strain (LC-11); experiment: Test Example 4: anti-tumor effect of TAS-102 or FTD with or without X-ray irradiation in LC-11-transplanted nude mice
# mouse = experiment: No observed adverse effect level on peroral administration to a mouse for 14 days; details: perorally administered to a mouse for 14 days; TAS-102 dose as reduced to FTD
# Method: α,α,α-Trifluorothymidine (hereinafter abbreviated as FTD) and TPI were suspended in a 0.5% (w/v) HPMC solution to adjust their concentrations to 5.0 mg/mL and 2.65 mg/mL, respectively, and the suspension was stirred at room temperature for about 10 minutes. Subsequently, the suspension was ultrasonicated under ice cooling, to thereby prepare a drug liquid with a dose of 50 mg/kg/day (as reduced to FTD). Hereinafter, the drug liquid is referred to as TAS-102. The dose of the TAS-102 liquid is a “no observed adverse effect level” when the liquid is perorally administered to a mouse for 14 days.
# FTD was suspended in a 0.5% (w/v) HPMC solution to adjust their concentrations to 5.0 mg/mL, and the suspension was stirred at room temperature for about 10 minutes. Subsequently, the suspension was ultrasonicated under ice cooling, to thereby prepare a FTD drug liquid with a dose of 50 mg/kg/day. The dose of FTD is a “no observed adverse effect level” when the liquid is perorally administered to a mouse for 14 days.
# [2] = tested on: human lung cancer strain (LC-11); experiment: Test Example 2: anti-tumor effect of TPI or TUPI with or without X-ray irradiation in LC-11-transplanted nude mice; details: for RTV Day 15 / RTV Day 22 / RTV Day 29: mean ± S.D.
# Method: (§1) TPI was suspended in a 0.5% (w/v) HPMC solution to adjust the concentration to 1.5 or 5.0 mg/mL, and the suspension was stirred at room temperature for about 10 minutes by means of a stirrer. Subsequently, the suspension was ultrasonicated under ice cooling for about five minutes, to thereby prepare a TPI drug liquid with a dose of 15 mg/kg/day or 50 mg/kg/day.
# as §1, with “5-Chloro-6-aminouracil (hereinafter abbreviated as TUPI) was” for “TPI was”, “to” for “to 1.5 or”, “a TUPI” for “a TPI”, “of” for “of 15 mg/kg/day or”
# By means of a radiation apparatus (model: MBR-1505R2, product of Hitachi Medical Corp.), mice were irradiated with X-rays under such irradiation conditions that the unit dose to one mouse was adjusted to 2 Gy or 5 Gy, by controlling the distance from the radiation source to the mouse. Specifically, radiation was applied locally to the right femoral region of each mouse where cells of a human tumor strain had been transplanted. In order to avoid systemic irradiation, the mouse was placed in a lead box so that only the right leg was exposed to the radiation.
# The human lung cancer strain (LC-11) subcutaneously transplanted into the back of a BALB/cA-nu mouse and grown beforehand were removed, cut into small pieces (about 2×2 mm^2) with scissors in physiological saline, and subcutaneously transplanted into the right femoral region of 5- to 6-week-old mice of the same strain with a transplantation needle. The thus-treated mice were bred for adaptation for at least 1 to 2 weeks and divided into a control group, radiation-only groups, drug-only groups, and radiation-drug combination groups, each group consisting of 6 mice, such that the average tumor volume and the standard deviation (S.D.) were equalized to a maximum extent between groups. Then, administration of the drug and irradiation were started. To each of the mice of the groups subjected to drug administration, the aforementioned TPI liquid or TUPI liquid was perorally administered, by means of an oral administration probe, once a day at a dose of 0.1 mL/10 g-body weight for 14 continuous days. The mice of the groups subjected to radiation were irradiated with X-rays at a dose of 2 Gy or 5 Gy through the aforementioned method within about one hour after administration of the TPI liquid or the TUPI liquid on the test day 1 and day 8. To the cancer-bearing mice of the control group (non-radiation/non-drug administration group) and those of the radiation-only groups, only 0.5% HPMC liquid was perorally administered through the same method for 14 continuous days.
# The tumor volume of each mouse of the above groups, which was calculated by the equation 1 in Test Example 1, was determined before the start of the treatment test, and on day 3, day 5, day 8 (1 week after), day 11, day 15 (after termination of administration, 2 weeks after), day 18, day […], day 25, and day 29 (4 weeks after). A relative tumor volume (RTV) to the tumor volume at the start of the test was obtained for each mouse. […] Then, the average tumor growth inhibition rate (IR: %) with respect to the control group was calculated on day 15, day 22, and day 29 (after termination of the treatment period) in a manner similar to that of Test Example 1.
# [3] = 50 mg/kg (as reduced to FTD) p.o. once a day for 14 days + X-ray 2 Gy on day 1 and day 8
# [4] = 50 mg/kg (as reduced to FTD) p.o. once a day for 14 days, no X-ray
# [5] = 50 mg/kg p.o. once a day for 14 days + X-ray 2 Gy on day 1 and day 8
# [6] = 50 mg/kg p.o. once a day for 14 days, no X-ray
smiles,measurement,setting,value
"O=c1[nH]c(=O)n([C@H]2C[C@H](O)[C@@H](CO)O2)cc1C(F)(F)F [FTD, α,α,α-Trifluorothymidine]",IR (%) Day 15,[1]; [3],35.8%
same,IR (%) Day 22,[1]; [3],48.6%
same,IR (%) Day 29,[1]; [3],58.5%
same,IR (%) Day 15,[1]; [4],52% and 51.8%
same,IR (%) Day 22,[1]; [4],57% and 57.2%
same,IR (%) Day 29,[1]; [4],59%
same,potentiation of anti-tumor effect of X-ray radiation (in words),[1]; 50 mg/kg + X-ray 2 Gy,the anti-tumor effect did not increase
same,no observed adverse effect level,mouse,50 mg/kg/day
"Nc1[nH]c(=O)[nH]c(=O)c1Cl [TUPI, 5-Chloro-6-aminouracil, reference compound]",IR (%) Day 15,[2]; [5],36.6%
same,IR (%) Day 22,[2]; [5],41.2%
same,IR (%) Day 29,[2]; [5],50.2%
same,RTV Day 15,[2]; [5],3.2 ± 0.8
same,RTV Day 22,[2]; [5],5.3 ± 1.7
same,RTV Day 29,[2]; [5],8.8 ± 2.5
same,IR (%) Day 15,[2]; [6],12.7%
same,IR (%) Day 22,[2]; [6],17.5%
same,IR (%) Day 29,[2]; [6],21.4%
same,RTV Day 15,[2]; [6],4.4 ± 1.8
same,RTV Day 22,[2]; [6],7.4 ± 3.3
same,RTV Day 29,[2]; [6],14.0 ± 6.3
same,anti-tumor effect of the drug singly administered (in words),"[2]; 50 mg/kg, no X-ray",virtually no anti-tumor effect
same,potentiation of anti-tumor effect of X-ray radiation (in words),[2]; drug + X-ray 2 Gy,no potentiation of anti-tumor effect was observed
